In US5795907A, “Gastin and CCK receptor ligands” (James Black Foundation Limited, priority 1994, dated 1998):

Tests used:
gastrin = target: T1, gastrin (Rattus norvegicus, UniProt P30553); test: gastrin antagonist activity in an immature rat stomach assay (pentagastrin-stimulated acid secretion); details: cumulative pentagastrin dose-response curves after 60 min with drug; for Kb: read-out: Gastrin pKB (converted)
T1 construct: The stomach was lowered into a jacketed organ bath containing 40 ml of buffered solution; from tissue; host or cells: isolated perfused whole stomach of immature rats (ca. 21 days old)
T1 sequence (P30553 1-452): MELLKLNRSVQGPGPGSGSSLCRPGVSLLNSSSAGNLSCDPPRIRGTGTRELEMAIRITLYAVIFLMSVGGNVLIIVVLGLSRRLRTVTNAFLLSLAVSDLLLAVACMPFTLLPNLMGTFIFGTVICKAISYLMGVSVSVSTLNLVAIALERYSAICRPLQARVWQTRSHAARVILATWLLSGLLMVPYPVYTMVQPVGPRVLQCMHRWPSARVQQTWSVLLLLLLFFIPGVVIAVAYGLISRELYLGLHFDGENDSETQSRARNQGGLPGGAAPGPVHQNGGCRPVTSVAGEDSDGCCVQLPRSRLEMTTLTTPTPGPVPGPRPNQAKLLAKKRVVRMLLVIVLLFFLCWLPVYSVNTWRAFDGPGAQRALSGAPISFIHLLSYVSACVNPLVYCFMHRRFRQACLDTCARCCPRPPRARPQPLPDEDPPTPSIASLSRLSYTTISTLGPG
Experimental: The compounds of the examples were also tested for gastrin antagonist activity in an immature rat stomach assay. The procedure was as follows:
The oesophagus of immature rats (33-50 g, ca. 21 days old) was ligated at the level of the cardiac sphincter and the duodenal sphincter was cannulated. The stomach was excised and flushed with ca. 1 ml of unbuffered physiological saline solution. The fundus was punctured and cannulated. A further 4-5 ml of unbuffered solution was flushed through the stomach to ensure the preparation was not leaking. The stomach was lowered into a jacketed organ bath containing 40 ml of buffered solution containing 3×10^-8 M 5-methylfurmethide, maintained at 37° and gassed vigorously with 95% O2 /5% CO2. The stomach was continuously perfused at a rate of 1 ml min^-1 with unbuffered solution gassed with 100% O2 with the perfusate passing over an internally referenced pH-electrode fixed 12 cm above the stomach.
After 120 min of stabilisation the drugs were added directly to the serosal solution in the organ bath and after a further 60 min cumulative pentagastrin dose-response curves were started. Changes in acid secretion were monitored and the curves analysed according to Black et.al., Br. J. Pharmacol., 1985, 86, 581.

CCKB receptor = target: T2, CCKB receptor (Mus musculus, UniProt P56481); test: CCKB receptor radioligand binding assay in mouse cortical membranes ([125I]-CCK8S); details: [125I]-CCK8S 200 pM, 150 min at 21±3°; for Ki: read-out: CCKB pKi (converted)
T2 construct: The cortex was dissected, weighed and homogenised in 40ml ice-cold buffer; tissue Charles River (supplier of the CD1 mice); host or cells: cerebral cortex membranes of male CD1 mice
T2 sequence (P56481 1-453): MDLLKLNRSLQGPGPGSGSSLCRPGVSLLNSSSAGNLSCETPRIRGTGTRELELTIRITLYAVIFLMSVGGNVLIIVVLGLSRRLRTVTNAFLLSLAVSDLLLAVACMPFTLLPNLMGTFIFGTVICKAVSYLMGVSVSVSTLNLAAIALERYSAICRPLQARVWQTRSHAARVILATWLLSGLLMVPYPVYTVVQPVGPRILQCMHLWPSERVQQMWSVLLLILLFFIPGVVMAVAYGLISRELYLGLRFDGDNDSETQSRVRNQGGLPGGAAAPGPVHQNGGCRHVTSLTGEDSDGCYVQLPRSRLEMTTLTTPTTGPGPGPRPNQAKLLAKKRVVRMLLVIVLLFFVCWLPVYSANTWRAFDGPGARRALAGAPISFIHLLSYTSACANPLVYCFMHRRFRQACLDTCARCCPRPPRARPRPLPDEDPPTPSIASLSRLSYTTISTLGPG
Experimental: The compounds of the examples were tested for binding at the CCKB receptor in mouse cortical membranes by means of a radioligand binding assay. The procedure was as follows:
The whole brains from male mice (CD1 22-25 g; Charles River) were removed and placed in ice-cold buffer (pH7.2 @ 21±3°) of the following composition (mM); 10 HEPES, 130 NaCl, 4.7 KCl, 5 MgCl2, 1 EDTA and containing 0.25g.^-1 bacitracin. The cortex was dissected, weighed and homogenised in 40ml ice-cold buffer using a Teflon-in-glass homogeniser. The homogenate was centrifuged at 39,800g for 20 min at 4°, the supernatant discarded and the pellet resuspended by homogenisation in fresh buffer. The homogenate was recentrifuged (39,800 g; 20 min @ 4°) and the final pellet was resuspended in HEPES buffer to give a tissue concentration of 2 mg.ml^-1 (original wet weight).
The membranes ([…]) were incubated for 150 min at 21±3° in a final volume of 0.5 ml with HEPES buffer containing [^125 I]-CCK8S (0.05 ml; 200 pM NEN 2200 Ci.mmol^-1) and competing compound. Total and non-specific binding of [^125 I]-CCK8S were defined using 0.05 ml of buffer and 0.05 ml of […] L-365,260, respectively. The assay was terminated by rapid filtration through pre-soaked Whatman GF/B filters using a Brandell Cell harvester. The filters were washed (3×3 ml) with ice-cold 50 mM Tris-HCl (pH7.4 @ 4° C.) and bound radioactivity determined by counting (1 min.) in a gamma-counter.

CCKA = target: T3, CCKA (Cavia porcellus, UniProt Q63931); test: CCKA radioligand binding assay in guinea-pig pancreas membranes ([125I]-CCK8(S)); details: PD134,308 present, 150 minutes at 21±3°
T3 construct: The pancreatata were homogenised in 40 ml ice-cold HEPES buffer using a polytron; from tissue; host or cells: pancreas membranes of male Dunkin Hartley guinea-pigs
T3 sequence (Q63931 1-430): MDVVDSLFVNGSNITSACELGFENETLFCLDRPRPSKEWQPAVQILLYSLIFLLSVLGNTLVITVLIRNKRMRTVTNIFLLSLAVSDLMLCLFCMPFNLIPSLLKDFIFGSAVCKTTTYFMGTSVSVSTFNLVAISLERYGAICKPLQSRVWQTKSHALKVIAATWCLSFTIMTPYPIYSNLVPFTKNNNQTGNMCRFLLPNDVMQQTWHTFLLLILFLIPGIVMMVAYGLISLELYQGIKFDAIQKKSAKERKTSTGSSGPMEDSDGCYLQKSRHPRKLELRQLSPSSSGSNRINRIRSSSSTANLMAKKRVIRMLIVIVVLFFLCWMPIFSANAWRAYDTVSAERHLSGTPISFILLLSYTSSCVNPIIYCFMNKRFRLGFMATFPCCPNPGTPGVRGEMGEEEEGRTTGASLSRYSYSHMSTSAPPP
Experimental: The compounds of the examples were also tested in a CCKA as follows:
The pancreatata were removed from male guinea-pigs (200-300 g; Dunkin Hartley) and placed in ice-cold HEPES buffer (pH 7.2 @ 21 ±3). The pancreatata were homogenised in 40 ml ice-cold HEPES buffer using a polytron (Brinkmann, PT10, setting 10) 4×1 second. The homogenate was centrifuged at 39,800 g for 15 min at 4°. The supernatant was discarded and the pellet re-suspended using a Teflon-in-glass homogeniser in 20 volumes of fresh buffer and re-centrifuged as above.
The final pellet was re-suspended using a Teflon-in-glass homogeniser to a tissue concentration of 1 mg.ml^-1 (original wet weight), and filtered through 500 μm pore-size Nytex mesh.
The membranes (400 μl; containing 0.375 μM PD134,308) are incubated for 150 minutes at 21±3° in a final volume of 0.5 ml with HEPES buffer containing [^125 I]-CCK8 (S) (50 μl; […]) and competing compound. Total and non-specific binding of [^125 I]-CCK8 (S) are defined using 50 μl of buffer and 50 μl of 100 nM L-364,718 respectively. The assay is terminated by rapid filtration through pre-soaked Whatman GF/B filters using a Brandell Cell Harvester. The filters were washed (3×3 ml) with ice-cold 50 mM Tris HCl (pH 7.4 at 4°) and bound radioactivity is determined by counting (1 min) in a gamma counter.

Row | Compound | Kb (gastrin) [µM] | Ki (CCKB receptor) [µM] | Gastrin pKB (gastrin) | CCKB pKi (CCKB receptor) | CCKA pKi (CCKA)
1 | CN(CC12CC3CC(CC(C3)C1)C2)C(=O)c1cc2ccccc2cc1C(=O)N1CCC[C@@H]1C(=O)O [Example 9, 2-(2R-carboxypyrrolidino-carbonyl)-3-(1-adamantanemethyl(N-methyl)aminocarbonyl)-naphthalene] | 0.501 | 0.251 |  |  | 
2 | 3-(1S-(3,5-dicarboxyphenylaminocarbonyl)-2-phenylethylaminocarbonyl)-2-(1-adamantanemethylaminocarbonyl)-1-phenylnaphthalene and its regioisomer with groups at positions 2 and 3 reversed [Example 56] |  |  | 7.1 | 7.0 | 
3 | O=C(O)c1cc(NC(=O)[C@@H](Cc2ccccc2)NC(=O)c2cc3ccccc3cc2C(=O)NCC23CC4CC(CC(C4)C2)C3)cc(C(=O)O)c1 [Example 23, 2-(1R-(3,5-dicarboxyphenylaminocarbonyl) -2-phenylethylaminocarbonyl)-3-(1-adamantanemethylaminocarbonyl)-naphthalene] | 0.0398 |  |  |  | 
4 | O=C(O)c1cc(NC(=O)[C@H](Cc2ccccc2)NC(=O)c2cc3c(cc2C(=O)NCC24CC5CC(CC(C5)C2)C4)[nH]c2ccccc23)cc(C(=O)O)c1 [Example 51, 3-(1S-(3,5-dicarboxyphenylaminocarbonyl)-2-phenylethylaminocarbonyl)-2-(1-adamantanemethylaminocarbonyl)-carbazole] | 0.0251 | 0.01 |  |  | 
5 | CC(=O)NS(=O)(=O)c1cccc(NC(=O)[C@H](Cc2ccccc2)NC(=O)c2cc3[nH]cnc3cc2C(=O)NCC23CC4CC(CC(C4)C2)C3)c1 [Example 137, 5-(1S-(3-acetylaminosulphonylphenylaminocarbonyl)-2-phenylethylaminocarbonyl)-6-(1-adamantanemethylaminocarbonyl)-benzimidazole] | 0.0158 | 0.02 |  |  | 
6 | O=C(O)CNC(=O)[C@H]1CCCN1C(=O)c1cc2ccccc2cc1C(=O)NCC12CC3CC(CC(C3)C1)C2 [Example 11, 2-(2R-carboxymethylaminocarbonylpyrrolidinocarbonyl)-3-(1-adamantanemethylaminocarbonyl)-naphthalene] | 0.251 | 1.26 |  |  | 
7 | O=C(O)c1cc(NC(=O)[C@H](Cc2ccccc2F)NC(=O)c2cc3[nH]cnc3cc2C(=O)NCC23CC4CC(CC(C4)C2)C3)cc(C(=O)O)c1 [Example 63, 5-(1S-(3,5-dicarboxyphenylaminocarbonyl)-2-(2-fluorophenyl)ethylaminocarbonyl)-6-(1-adamantanemethylaminocarbonyl)-benzimidazole] |  |  | 9.1 | 8.4 | 
8 | COC(=O)c1cc(NC(=O)[C@H](Cc2ccccc2)NC(=O)c2cc3cc[nH]c3cc2C(=O)NCC23CC4CC(CC(C4)C2)C3)cc(C(=O)OC)c1 [Example 35, 5-(1S-(3,5-dimethoxycarbonylphenylaminocarbonyl)-2-phenylethylaminocarbonyl)-6-(1-adamantanemethylaminocarbonyl)-indole] | 0.002 | 0.0631 |  |  | 
9 | 5-(1S-(3,5-dicarboxyphenylaminocarbonyl)-5-aminopentylaminocarbonyl)-6-(1-adamantanemethylaminocarbonyl)-indole and regioisomer with substituents at positions 5 and 6 reversed [Example 65] |  |  | 8.2 | 7.3 | 
10 | C[C@@H](NC(=O)[C@H]1CCCN1C(=O)c1cc2ccccc2cc1C(=O)NCC12CC3CC(CC(C3)C1)C2)C(=O)O [Example 10, 2-(2R-(1R-carboxyethylaminocarbonyl)pyrrolidinocarbonyl)-3-(1-adamantanemethylaminocarbonyl)-naphthalene] | 0.316 | 1.58 |  |  | 
11 | 5-(1S-(3,5-methoxyaminocarbonylphenylaminocarbonyl)-2-phenylethylaminocarbonyl)-6-(1-adamantanemethylaminocarbonyl)-indole and regioisomer with substituents at positions 5 and 6 reversed [Example 38] |  |  | 7.1 | 7.5 | 
12 | O=C(O)c1cc(NC(=O)[C@H](Cc2ccccc2)NC(=O)c2cc3ccn(S(=O)(=O)c4ccccc4)c3cc2C(=O)NCC23CC4CC(CC(C4)C2)C3)cc(C(=O)O)c1 [Example 45, 5-(1S-(3,5-dicarboxyphenylaminocarbonyl)-2-phenylethylaminocarbonyl)-6-(1-adamantanemethylamino-carbonyl)-N-phenylsulphonyl-indole] |  |  |  | 7.1 | 6.1
